How the values were obtained:
[1] = biological target: Recombinant human c-KIT kinase (Homo sapiens (Human), UniProt P10721); assay: c-KIT kinase chemiluminescence assay (ADP-Glo); format: biochemical; conditions: ATP 50 μM
Method: The c-KIT Kinase Enzyme System (V4498) and ADP-Glo™ Kinase Assay kit (V6930) were purchased from Promega (Madison, WI). DMSO (D2650) was purchased from Sigma-Aldrich (Burlington, MA).
Kinase Reaction: The kinase assay was based on the recommended protocol by c-KIT Kinase Enzyme System from Promega. Recombinant human c-KIT kinase in 3 μL of assay buffer (40 mM Tris pH 7.5, 20 mM MgCl2, 0.1 mg/mL BSA and 50 μM DTT) was added to the test or high control wells and 3 μL of assay buffer was added to the low control wells. The microplate was centrifuged at 800 rotations per minute (rpm) for 60 s and incubated at room temperature (RT) for 30 min. Next, 2 μL of buffered ATP and polyEY substrate solution was added to all wells. The microplate was centrifuged at 800 rpm for 60 s and incubated at RT for 2 h.
ADP detection with ADP-Glo™ Kinase Assay: After the kinase reaction incubation, 5 μL of ADP-Glo™ reagent was added to all wells. The microplate was centrifuged at 800 rpm for 60 s and incubated at RT for 40 min. Ten microliter (10 μL) of Kinase Detection Reagent (Luciferin-Luciferase system) was then added to all wells. The microplate was centrifuged at 800 rpm for 60 s and incubated at RT for 60 min. Kinase activity was measured as increase in luminescence at RT in an Envision plate reader equipped with 560 nm filters and operating in endpoint mode. Data Analysis: Endpoint chemiluminescence from high and low control wells were used to calculate normalized c-KIT activity at various concentrations of test compounds. The normalized activities were fitted to inhibitor-versus-normalized response fit in GraphPad Prism 7 to determine half-maximal inhibitory concentration (IC50) and hill coefficient values (H).
Where I is the inhibitor concentration and H is the Hill coefficient.

M-07e cells = assay: M-07e cellular assay (SCF-mediated cell proliferation); format: cell-based; conditions: Homo sapiens, 72 hours, CellTiter Glo
Method: M-07e cells (Creative Bioarray, CSC-C0249) which endogenously express human c-KIT were used to evaluate the effect of compounds on stem cell factor (SCF)-mediated cell proliferation. M-07e cells were cultured in growth media (RPMI+10% FBS+1% penicillin/streptomycin+10 ng/mL GM-CSF) at 5E5-1.5E6 cells/mL, replenishing media every 3-4 days. 1.5E4 cells were seeded per well in 384 well tissue culture treated plates in 20 μL assay media (RPMI+[…]+1% penicillin/streptomycin) without growth factor stimulation and incubated at 37° C. in a CO2 humidity-controlled incubator. Twenty-four hours later, three-fold serially diluted test compounds in media containing SCF (at the previously determined EC90) were added to the plated M-07e cells and incubated for an additional 72 hours. Cell viability was determined by adding 25 μL CellTiter Glo (Promega) to the cells and the luminescence was measured using a Perkin Elmer Envision plate reader. The EC50 was determined using GraphPad Prism. Percent cell growth was determined after normalizing the curve to the mean RLU high control (no compound control wells) at 100% and the mean RLU low control (no SCF control wells) at 0%.

Sequence of Recombinant human c-KIT kinase (P10721 26-976): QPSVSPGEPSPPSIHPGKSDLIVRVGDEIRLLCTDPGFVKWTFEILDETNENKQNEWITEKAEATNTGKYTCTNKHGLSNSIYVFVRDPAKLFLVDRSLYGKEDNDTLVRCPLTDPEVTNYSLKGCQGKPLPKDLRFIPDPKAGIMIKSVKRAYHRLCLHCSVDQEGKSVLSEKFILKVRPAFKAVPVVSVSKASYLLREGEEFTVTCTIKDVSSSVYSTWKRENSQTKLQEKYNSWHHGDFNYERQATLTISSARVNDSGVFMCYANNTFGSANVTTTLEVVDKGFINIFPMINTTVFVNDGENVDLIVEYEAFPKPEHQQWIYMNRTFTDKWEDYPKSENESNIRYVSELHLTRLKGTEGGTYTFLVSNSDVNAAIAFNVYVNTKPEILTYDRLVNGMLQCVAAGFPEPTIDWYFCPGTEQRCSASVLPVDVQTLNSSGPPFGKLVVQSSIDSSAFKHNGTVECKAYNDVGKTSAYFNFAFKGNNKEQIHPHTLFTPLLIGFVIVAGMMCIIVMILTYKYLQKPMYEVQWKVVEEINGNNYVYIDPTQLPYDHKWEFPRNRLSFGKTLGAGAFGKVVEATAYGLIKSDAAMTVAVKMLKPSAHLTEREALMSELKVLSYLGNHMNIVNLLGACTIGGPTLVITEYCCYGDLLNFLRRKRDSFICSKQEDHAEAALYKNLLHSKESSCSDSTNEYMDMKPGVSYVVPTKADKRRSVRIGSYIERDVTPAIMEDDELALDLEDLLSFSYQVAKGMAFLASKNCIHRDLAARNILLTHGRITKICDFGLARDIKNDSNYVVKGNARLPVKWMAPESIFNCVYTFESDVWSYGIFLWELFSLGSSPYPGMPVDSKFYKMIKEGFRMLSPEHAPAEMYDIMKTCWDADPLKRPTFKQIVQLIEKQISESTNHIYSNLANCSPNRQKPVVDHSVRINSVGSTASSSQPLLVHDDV

Structure (SMILES) | IC50 [1] [nM] | EC50 (M-07e cells) [nM]
Cc1ccc(-c2noc([C@H]3C[C@@H]3F)n2)cc1NC(=O)c1cnn2cc(Cl)c(-c3c(C)nn(C(F)F)c3C)cc12 [Example 167] | > 1000 | > 1000
Cc1ncc(-c2ccc(C3CC3)cn2)cc1NC(=O)c1cnn2ccc(N3CC4(COC4)C3)cc12 [Example 357] | 100 to 1000 | < 100
Cc1cc(F)c(-c2noc([C@H]3C[C@@H](OC(F)(F)F)C3)n2)cc1NC(=O)c1cnn2ccc(N3CC4(COC4)C3)cc12 [Example 281-57] | < 100 | 100 to 1000
Cc1cc(F)c(-c2noc([C@H]3C[C@@H]3F)n2)cc1NC(=O)c1cnc(-c2ccc3[nH]ncc3c2)o1 [Example 308-11] | 100 to 1000 | 100 to 1000
COc1ccn2ncc(C(=O)Nc3cc(-c4noc([C@H]5C[C@@H]5F)n4)ccc3C)c2c1 [Example 60] | < 100 | < 100
Cc1ccc(-c2noc([C@H]3C[C@@H]3F)n2)cc1NC(=O)c1cnn2ccc(N3CC(C(=O)OC(C)(C)C)C3)cc12 [Example 208] | 100 to 1000 | 100 to 1000
Cc1ccc(-c2noc([C@H]3C[C@@H]3F)n2)cc1NC(=O)c1cnc(-c2ccccc2)o1 [Example 85] | 100 to 1000 | 100 to 1000
Cc1ccc(-c2noc([C@H]3C[C@@H]3F)n2)cc1NC(=O)c1cnn2ccc(NC(=O)OC(C)(C)C)cc12 [Example 90] | 100 to 1000 | 100 to 1000
Cc1ccc(-c2noc([C@H]3C[C@@H]3F)n2)cc1NC(=O)c1cnn2cc(-c3cnnn3CC(F)(F)F)ccc12 [Example 121] | > 1000 | > 1000
Cc1ncc(-c2nnnn2C)cc1NC(=O)c1cnn2ccc(N3CC4(C3)CC(O)(C(F)F)C4)cc12 [Example 312-1] | > 1000 | > 1000
Cc1ccc(-c2noc([C@H]3C[C@@H]3F)n2)cc1NC(=O)c1cnn2ccc(N3CC4(CCC4)C3)cc12 [Example 227] | < 100 | 100 to 1000
Cc1ncc(-c2cn(C3CC3)nn2)cc1NC(=O)c1cnn2ccc(N3CC4(C3)CC(O)(C(F)F)C4)cc12 [Example 377] | 100 to 1000 | < 100
O=C(Nc1cc(-c2ccc(C3CC3)cn2)ccc1Cl)c1cnn2ccc(N3CC4(C3)CC(O)(C(F)F)C4)cc12 [Example 352] | > 1000 | > 1000
COC(=O)N1CCC(c2nc(-c3ccc(C)c(NC(=O)c4cnn5ccc(N6CC7(C6)CC(O)(C(F)F)C7)cc45)c3)no2)CC1 [Example 281-134] | < 100 | < 100
Cc1ccc(-c2noc([C@H]3C[C@](O)(C(F)(F)F)C3)n2)cc1NC(=O)c1cnn2ccc(N3CC4(COC4)C3)cc12 [Example 281-31] | < 100 | < 100
Cc1ccc(-c2noc([C@H]3C[C@@H]3F)n2)cc1NC(=O)c1cnn2ccc(NC(=O)OC3CC3)cc12 [Example 94] | 100 to 1000 | 100 to 1000
Cc1ccc(-c2noc([C@H]3C[C@@H]3F)n2)cc1NC(=O)c1cnn2ccc(-c3ccc(N4CCOCC4)nc3C)cc12 [Example 171-18] | < 100 | < 100
COCCn1cc(-c2ccn3ncc(C(=O)Nc4cc(-c5noc([C@H]6C[C@@H]6F)n5)ccc4C)c3c2)cn1 [Example 153] | < 100 | < 100
Cc1ccc(-c2noc(N3CC(O)(C(F)(F)F)C3)n2)cc1NC(=O)c1cnn2ccc(N3CC4(COC4)C3)cc12 [Example 281-82] | < 100 | < 100
Cc1cc(C)c(-c2ccn3ncc(C(=O)Nc4cc(-c5noc([C@H]6C[C@@H]6F)n5)ccc4C)c3c2)c(C)c1 [Example 171-2] | > 1000 | > 1000
Cc1ccc(-c2noc([C@H]3C[C@@H]3F)n2)cc1NC(=O)c1cnn2ccc(N3CC4(CCOC4)C3)cc12 [Example 183] | < 100 | < 100
Cc1sc(-c2noc(C3CN(C(=O)C4(F)CC4)C3)n2)cc1NC(=O)c1cnn2ccc(N3CC4(C3)CC(O)(C(F)F)C4)cc12 [Example 281-129] | 100 to 1000 | 100 to 1000

Structure (SMILES) | IC50 [1] [nM] | EC50 (M-07e cells) [nM]
COC(=O)N1CC(c2nc(-c3cc(NC(=O)c4cnn5ccc(N6CC7(COC7)C6)cc45)c(C)cc3F)no2)C1 [Example 281-48] | < 100 | 100 to 1000
Cc1ccc(-c2noc([C@H]3C[C@@H]3F)n2)cc1NC(=O)c1cnn2cc(-c3cn(C4CC4)nn3)ccc12 [Example 114] | < 100 | < 100
Cc1ccc(-c2noc([C@H]3C[C@@H]3F)n2)cc1NC(=O)c1cnc(N2CC(C(=O)OC(C)(C)C)C2)s1 [Example 98-3] | > 1000 | > 1000
Cc1ccc(-c2noc([C@@H]3C[C@@H]3C(F)F)n2)cc1NC(=O)c1cnn2ccc(N3CC4(COC4)C3)cc12 [Example 277] | < 100 | < 100
Cc1ccc(-c2nc([C@H]3C[C@@H]3F)cs2)cc1NC(=O)c1cnn2ccc(N3CC4(COC4)C3)cc12 [Example 309] | – | < 100
Cc1ccc(-c2noc(C3C[C@@H]3F)n2)cc1NC(=O)c1cnn2ccc(N3C[C@H](CS(C)(=O)=O)[C@@H]3C)cc12 (stereo partly drawn) [Example 172] | – | < 100
Cc1nc(N)nc(C)c1-c1ccn2ncc(C(=O)Nc3cc(-c4noc(C5CN(C(=O)[C@H]6C[C@@H]6F)C5)n4)sc3C)c2c1 [Example 371] | – | > 1000
Cc1ncc(-c2ncc(OC(F)(F)F)cn2)cc1NC(=O)c1cnn2ccc(-c3c(C)nc(N)nc3C)cc12 [Example 364] | – | < 100
Cc1ccc(-c2noc([C@H]3C[C@@H]3F)n2)cc1NC(=O)c1cnc(-c2cnc(N)nc2)o1 [Example 308-64] | – | > 1000
Cc1ncc(-c2ccn3ncc(C(=O)Nc4cc(-c5noc([C@H]6C[C@@H]6F)n5)ccc4C)c3c2)c(C)n1 [Example 168] | – | < 100
Cc1nn(-c2ccc(C3CC3)cc2)cc1NC(=O)c1cnn2ccc(N3CC4(COC4)C3)cc12 [Example 372] | – | > 1000
Cc1nc(N)nc(C)c1-c1ccn2ncc(C(=O)Nc3cc(-c4noc([C@H]5C[C@@H](OC(F)(F)F)C5)n4)sc3C)c2c1 [Example 368] | – | 100 to 1000
Cc1ccc(-c2noc([C@H]3C[C@@H]3F)n2)cc1NC(=O)c1cnc2n1Cc1ccccc1-2 [Example 99] | – | < 100
Cc1ccc(-c2noc(C3C[C@@H]3F)n2)cc1NC(=O)c1cnn2ccc(-c3cnn(C(F)F)c3)cc12 (stereo partly drawn) [Example 2a] | – | < 100
Cc1nc(N)nc(C)c1-c1ccn2ncc(C(=O)Nc3cc(-c4noc(C5CN(C(=O)OC(C)(C)C)C5)n4)sc3C)c2c1 [Example 369] | – | > 1000
Cc1ccc(-c2noc([C@H]3C[C@@H]3F)n2)cc1NC(=O)c1cnn2ccc(C(=O)N3CCCCC3)cc12 [Example 89] | > 1000 | –
Cc1ccc(-c2noc([C@H]3C[C@@H]3F)n2)cc1NC(=O)c1cnc2[nH]cnc2c1 [Example 66] | > 1000 | –
Cc1ccc(-c2noc([C@H]3C[C@@H]3F)n2)cc1NC(=O)c1cnc2cnn(C(=O)C(C)C)c2c1 [Example 49] | > 1000 | –
Cc1ccc(-c2noc([C@H]3C[C@@H]3F)n2)cc1NC(=O)c1cnc2ncccc2c1 [Example 28] | > 1000 | –
Cc1nc(N)nc(C)c1-c1ccn2ncc(C(=O)Nc3cc(-c4noc([C@H]5C[C@@H]5F)n4)sc3C)c2c1 [Example 370] | – | > 1000
Cc1ccc(-c2noc([C@H]3C[C@@H]3F)n2)cc1NC(=O)c1cnn2cc(-c3cnn(C4COC4)c3)ccc12 [Example 137] | < 100 | –

— US20250059174A1, “Pharmaceutical Compounds and Compositions as C-Kit Kinase Inhibitors” (Enanta Pharmaceuticals, Inc., priority 2023, published 2025)
